pIC50: −log10 of the molar value. Read-outs that look alike come from different tables or passages of the source.
Molecular target: Endothelial lipase (EL) (Homo sapiens (Human), UniProt Q9Y5X9)
Test: Endothelial lipase (EL) enzymatic assay with fluorescent substrate A10070 in DMPG vesicles
Format: biochemical
Procedure, shortened: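 EL from conditioned medium of HT-1080 cells engineered to overexpress endogenous EL; HL partially purified from conditioned medium of HL-overexpressing COS cells. Enzyme preincubated with compound 30 min at 37° C in 50 mM HEPES pH 8.0, 50 mM NaCl, 1 mM CaCl2; DMPG vesicles carrying FRET substrate (0.11 mole fraction) then added.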

[1] = EL from conditioned media of HT-1080 cells, 30 min preincubation at 37° C.

Sequence of Endothelial lipase (EL) (Q9Y5X9 21-500): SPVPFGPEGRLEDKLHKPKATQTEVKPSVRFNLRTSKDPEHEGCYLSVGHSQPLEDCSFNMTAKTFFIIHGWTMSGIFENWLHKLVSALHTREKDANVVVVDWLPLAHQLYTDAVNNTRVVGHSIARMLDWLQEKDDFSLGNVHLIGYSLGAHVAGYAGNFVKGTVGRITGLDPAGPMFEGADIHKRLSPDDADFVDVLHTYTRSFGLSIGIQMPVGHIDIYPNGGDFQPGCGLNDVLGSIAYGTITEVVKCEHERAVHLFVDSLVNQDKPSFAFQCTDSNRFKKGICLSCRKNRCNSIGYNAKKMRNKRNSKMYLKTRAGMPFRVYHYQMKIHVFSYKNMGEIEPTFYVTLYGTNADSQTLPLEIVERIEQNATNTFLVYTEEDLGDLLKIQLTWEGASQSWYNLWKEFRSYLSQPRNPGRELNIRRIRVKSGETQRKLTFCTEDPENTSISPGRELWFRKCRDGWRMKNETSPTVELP

## CC(=O)Nc1ccc(-c2cc3nc(C(C(=O)NCC(=O)NC4CC4)S(C)(=O)=O)sc3cc2F)cc1 (centres unmarked) [Example 113, N-[(cyclopropyl-carbamoyl)methyl]-2-[5-(4-acetamidophenyl)-6-fluoro-1,3-benzothiazol-2-yl]-2-methanesulfonyl-acetamide]
  pIC50: 8.05

## COC1(C)CN(C(=O)c2ccc(-c3ccc4nc(C(C(=O)NCC(=O)NC5CC5)S(=O)(=O)c5ccccc5)sc4c3)cc2)C1 (centres unmarked) [Example 401, 2-(benzenesulfonyl)-N-[(cyclopropyl-carbamoyl)methyl]-2-{6-[4-(3-methoxy-3-methylazetidine-1-carbonyl)phenyl]-1,3-benzothiazol-2-yl}acetamide]
  pIC50: 8.30

## COCCS(=O)(=O)C(C(=O)NCC(=O)NC1CC1)c1nc2cc(Cl)c(-c3ccnn3C)cc2s1 (centres unmarked) [Example 107]
  pIC50: 7.47

## CC(C)S(=O)(=O)C(C(=O)NCC(=O)NC1CC1)c1nc2cc(-c3ccc(C(=O)N4CCC4)cc3)c(F)cc2s1 (centres unmarked) [Example 277, 2-{5-[4-(azetidine-1-carbonyl)phenyl]-6-fluoro-1,3-benzothiazol-2-yl}-N-[(cyclopropyl-carbamoyl)methyl]-2-(propane-2-sulfonyl)acetamide]
  pIC50: 7.89

## N#CCS(=O)(=O)C(C(=O)NCC(=O)NC1CC1)c1nc2cc(F)c(-c3ccc(NC(=O)OCc4ccccc4)cc3)cc2s1 (centres unmarked) [Example 47, benzyl N-(4-{2-[(cyanomethane-sulfonyl) ({[(cyclopropyl-carbamoyl)methyl]carbamoyl}methyl]-5-fluoro-1,3-benzothiazol-6-yl}phenyl) carbamate]
  pIC50: 8.70

## Cc1cc2nc(C(C(=O)NCC(=O)NC3CC3)S(=O)(=O)C(C)C)sc2cc1-c1ccc2c(c1)C(=O)NC2 (centres unmarked) [Example 258, N-[(cyclopropyl-carbamoyl)methyl]-2-[5-methyl-6-(3-oxo-2,3-dihydro-1H-isoindol-5-yl)-1,3-benzothiazol-2-yl]-2-(propane-2-sulfonyl) acetamide]
  pIC50: 7.72

## CS(=O)(=O)C(C(=O)NCC(=O)NC1CC1)c1nc2cc(-c3ccc(NC(=O)OCc4ccccc4)cc3)c(F)cc2s1 (centres unmarked) [Example 8, benzyl N-{4-[2-({[(cyclopropyl-carbamoyl)methyl]carbamoyl} (methane-sulfonyl)methyl)-6-fluoro-1,3-benzothiazol-5-yl]phenyl} carbamate]
  pIC50: 9.00

## COCCS(=O)(=O)C(C(=O)NCC(=O)NC1CC1)c1nc2cc(F)c(-c3ccc(-c4nn[nH]n4)c(F)c3)cc2s1 (centres unmarked) [Example 420, N-[(cyclopropyl-carbamoyl)methyl]-2-{5-fluoro-6-[3-fluoro-4-(2H-1,2,3,4-tetrazol-5-yl)phenyl]-1,3-benzothiazol-2-yl}-2-(2-methoxyethane-sulfonyl)acetamide]
  pIC50: 7.96

## Cc1cc(-c2cc3sc(C(C(=O)NCC(=O)NC4CC4)S(=O)(=O)C(C)C)nc3cc2C)cnn1 (centres unmarked) [Example 257, N-[(cyclopropyl-carbamoyl)methyl]-2-[5-methyl-6-(6-methylpyridazin-4-yl)-1,3-benzothiazol-2-yl]-2-(propane-2-sulfonyl) acetamide]
  pIC50: 7.96

## CS(=O)(=O)C(C(=O)NCC(=O)NC1CC1)c1nc2cc(F)c(-c3ccc4c(c3)CC(=O)N4)cc2s1 (centres unmarked) [Example 370, N-[(cyclopropyl-carbamoyl)methyl]-2-[5-fluoro-6-(2-oxo-2,3-dihydro-1H-indol-5-yl)-1,3-benzothiazol-2-yl]-2-methanesulfonyl-acetamide]
  pIC50: 8.30

## Cc1cc2nc(C(C(=O)NCC(=O)NC3CC3)S(=O)(=O)C(C)C)sc2cc1-c1ccc2c(=O)n(C)ccc2c1 (centres unmarked) [Example 256, N-[(cyclopropyl-carbamoyl)methyl]-2-[5-methyl-6-(2-methyl-1-oxo-1,2-dihydro-isoquinolin-6-yl)-1,3-benzothiazol-2-yl]-2-(propane-2-sulfonyl) acetamide]
  pIC50: 8.52

## CC(C)S(=O)(=O)C(C(=O)NCC(=O)NC1CC1)c1nc2cc(F)c(-c3ccc(C(=O)Nc4nccs4)cc3)cc2s1 (centres unmarked) [Example 247, 4-[2-({[(cyclopropyl-carbamoyl)methyl]carbamoyl} (propane-2-sulfonyl)methyl)-5-fluoro-1,3-benzothiazol-6-yl]-N-(1,3-thiazol-2-yl) benzamide]
  pIC50: 7.96

## O=C(CNC(=O)C(c1nc2ccc(-c3ccccc3)cc2s1)S(=O)(=O)c1ccccc1)NC1CC1 (centres unmarked) [Example 430, 2-(Benzenesulfonyl)-N-[(cyclopropylcarbamoyl)methyl]-2-(6-phenyl-1,3-benzothiazol-2-yl)acetamide]
[1]
  pIC50: 8.18

## COCCNC(=O)c1ccc(-c2ccc3nc(C(C(=O)NCC(=O)NC4CC4)S(=O)(=O)c4ccccc4)sc3c2)cc1 (centres unmarked) [Example 431, 4-{2-[(benzenesulfonyl) ({[(cyclopropyl-carbamoyl)methyl]carbamoyl})methyl]-1,3-benzothiazol-6-yl}-N-(2-methoxyethyl) benzamide]
  pIC50: 8.52

## COC(=O)Nc1ccc(-c2cc3sc(C(C(=O)NCC(=O)NC4CC4)S(=O)(=O)CCN4CCOCC4)nc3cc2F)cc1 (centres unmarked) [Example 422, methyl N-{4-[2-({[(cyclopropyl-carbamoyl)methyl]carbamoyl}[2-(morpholin-4-yl)ethanesulfonyl]methyl)-5-fluoro-1,3-benzothiazol-6-yl]phenyl} carbamate]
  pIC50: 8.52

## COCCNC(=O)CNC(=O)C(c1nc2ccc(-c3ccc4c(c3)CN(C3CC3)C4=O)cc2s1)S(=O)(=O)c1ccc(F)cc1 (centres unmarked) [Example 595, 2-(6-(2-Cyclopropyl-1-oxoisoindolin-5-yl)benzo[d]thiazol-2-yl)-2-((4-fluorophenyl)sulfonyl)-N-(2-((2-methoxyethyl)amino)-2-oxoethyl)]
[1]
  pIC50: 7.62

## COCCNC(=O)CNC(=O)C(c1nc2ccc(-c3ccc(F)nc3)cc2s1)S(=O)(=O)c1ccc(F)cc1 (centres unmarked) [Example 461, 2-(4-fluorobenzene-sulfonyl)-2-[6-(6-fluoropyridin-3-yl)-1,3-benzothiazol-2-yl]-N-{[(2-methoxyethyl)carbamoyl]methyl} acetamide]
  pIC50: 6.82

## CC(C)c1cc(CNC(=O)C(C)(C)c2nc3ccc(-c4ccccc4)cc3s2)on1 [Reference 2, N-((3-Isopropylisoxazol-5-yl)methyl)-2-methyl-2-(6-phenylbenzo[d]thiazol-2-yl)propanamide, reference compound]
Reference compounds, EL from conditioned media of HT-1080 cells, 30 min preincubation at 37° C.
  pIC50: < 4.21

## CC(C)S(=O)(=O)C(C(=O)NCC(=O)NC1CC1)c1nc2cc(-c3ccc4cnn(C)c4c3)c(F)cc2s1 (centres unmarked) [Example 273, N-[(cyclopropyl-carbamoyl)methyl]-2-[6-fluoro-5-(1-methyl-1H-indazol-6-yl)-1,3-benzothiazol-2-yl]-2-(propane-2-sulfonyl)acetamide]
  pIC50: 8.05

## COCCS(=O)(=O)C(C(=O)NCC(=O)NC1CC1)c1nc2cc(-c3cncnc3C(C)C)ccc2s1 (centres unmarked) [Example 86, N-[(cyclopropyl-carbamoyl)methyl]-2-(2-methoxyethane-sulfonyl)-2-{5-[4-(propan-2-yl)pyrimidin-5-yl]-1,3-benzothiazol-2-yl}acetamide]
  pIC50: 6.53

## CN(C)S(=O)(=O)C(C(=O)NCC(=O)NC1CC1)c1nc2ccc(-c3ccc(F)nc3)cc2s1 (centres unmarked) [Example 484, N-[(cyclopropyl-carbamoyl)methyl]-2-(dimethyl-sulfamoyl)-2-[6-(6-fluoropyridin-3-yl)-1,3-benzothiazol-2-yl]acetamide]
  pIC50: 8.15

## CN(C)S(=O)(=O)C(C(=O)NCC(=O)NC1CC1)c1nc2c(F)cc(-c3ccc(-c4ccccc4)nc3)cc2s1 (centres unmarked) [Example 498, N-[(cyclopropyl-carbamoyl)methyl]-2-(dimethyl-sulfamoyl)-2-[4-fluoro-6-(6-phenylpyridin-3-yl)-1,3-benzothiazol-2-yl]acetamide]
  pIC50: 8.52

## COC(=O)N(C)c1cccc(-c2ccc3nc(C(C(=O)NCC(=O)NC4CC4)S(=O)(=O)CCC(F)(F)F)sc3c2)c1 (centres unmarked) [Example 546, methyl N-{3-[2-({[(cyclopropyl-carbamoyl)methyl]carbamoyl}(3,3,3-trifluoropropane-sulfonyl)methyl)-1,3-benzothiazol-6-yl]phenyl}-N-methylcarbamate]
  pIC50: 8.15

## O=C(CNC(=O)C(c1nc2ccc(-c3ccc(F)nc3)cc2s1)S(=O)(=O)CCC(F)(F)F)NC1CC1 (centres unmarked) [Example 56, N-[(cyclopropyl-carbamoyl)methyl]-2-[6-(6-fluoropyridin-3-yl)-1,3-benzothiazol-2-yl]-2-(3,3,3-trifluoropropane-sulfonyl)acetamide]
  pIC50: 7.54

## Cc1cc2nc(C(C(=O)NCC(=O)NC3CC3)S(=O)(=O)C(C)C)sc2cc1-c1ccc(C(C)C)nc1 (centres unmarked) [Example 253, N-[(cyclopropyl-carbamoyl)methyl]-2-{5-methyl-6-[6-(propan-2-yl)pyridin-3-yl]-1,3-benzothiazol-2-yl}-2-(propane-2-sulfonyl) acetamide]
  pIC50: 8.15

## COCCS(=O)(=O)C(C(=O)NCC(=O)NC1CC1)c1nc2ccc(-c3ccc(N(C)C(=O)OC)cc3)cc2s1 (centres unmarked) [Example 25, methyl N-{4-[2-({[(cyclopropyl-carbamoyl)methyl]carbamoyl}(2-methoxyethane-sulfonyl)methyl)-1,3-benzothiazol-6-yl]phenyl}-N-methylcarbamate]
  pIC50: 8.15

## CC(C)S(=O)(=O)C(C(=O)NCC(=O)NC1CC1)c1nc2cc(F)c(-c3ccc4[nH]c(=O)ccc4c3)cc2s1 (centres unmarked) [Example 234, N-[(cyclopropyl-carbamoyl)methyl]-2-[5-fluoro-6-(2-oxo-1,2-dihydroquinolin-6-yl)-1,3-benzothiazol-2-yl]-2-(propane-2-sulfonyl) acetamide]
  pIC50: 8.22

## CS(=O)(=O)C(C(=O)NCC(=O)NC1CC1)c1nc2cc(F)c(-c3ccccc3)cc2s1 (centres unmarked) [Example 609, N-[(cyclopropyl-carbamoyl)methyl]-2-(5-fluoro-6-phenyl-1,3-benzothiazol-2-yl)-2-methanesulfonyl-acetamide]
  pIC50: 8.70

## COCCS(=O)(=O)C(C(=O)NCC(=O)NC1CC1)c1nc2ccc(-c3cncnc3)cc2s1 (centres unmarked) [Example 310, N-[(cyclopropyl-carbamoyl)methyl]-2-(2-methoxyethane-sulfonyl)-2-[6-(pyrimidin-5-yl)-1,3-benzothiazol-2-yl]acetamide]
  pIC50: 7.03
